Data as given in patent publication US8252337B2, “Charged mesoporous silica nanoparticle-based drug delivery system for controlled release and enhanced bioavailability” (National Health Research Institutes, priority 2008, dated 2012).

Experiment: Saturated aqueous sulfasalazine solution
Format: physicochemical
Settings: in H2O
Procedure: Sulfasalazine-Loaded MSN-TA Samples: A saturated aqueous sulfasalazine solution was prepared by dissolving 0.5 g of sulfasalazine in 1 L of H2O, stirred for 6 h, and filtered through a […] cellulose acetate membrane to remove the residual solids. […] Sulfasalazine was adsorbed onto MSN-TA samples by adding 10 mg of MSN-TA samples into 10 mL of the above saturated sulfasalazine solution. The mixture was stirred at 800 rpm for 4 h. The particles were then washed with deionized water and centrifuged for 20 min at 12 000 rpm. The supernatant was analyzed with a UV-Vis spectrometer. The amount of Sulfasalazine adsorbed onto nanoparticles was determined by measuring the decrease in absorption at 360 nm. The loading percentage of sulfasalazine onto MSN-TA-4 was about 1.7%.

pH of saturated sulfasalazine solution: 5.4
SMILES: O=C(O)c1cc(/N=N/c2ccc(S(=O)(=O)Nc3ccccn3)cc2)ccc1O [sulfasalazine]
